In ChEMBL document CHEMBL5465560, “Selectivity Literature for EUbOPEN Chemogenomic Library” (2024):
One block for each compound: values may come before it.

Legend:
[1] = target: Histone-lysine N-methyltransferase ASH1L (Homo sapiens) (UniProt Q9NR48); experiment: Selectivity interaction (Methyltransferase screen (radiometric assays, panel of 8 PRMTs, 21 protein lysine methyltransferases, 3 DNA methyltransferases, and one RNA methyltransferase)) EUB0000272b ASH1L
[2] = target: Cyclin-dependent kinase 2 (Homo sapiens, UniProt P24941); experiment: Selectivity interaction (Kinase panel (literature)) EUB0001199aCl CDK2; details: at 1 µM
[3] = target: Casein kinase I isoform epsilon (Homo sapiens, UniProt P49674); experiment: Selectivity interaction (ActivX KiNativ screen (kinase selectivity in THP-1 cell lysates)) EUB0000639a CSNK1E; type: subcellular; details: lysate
Casein kinase I isoform epsilon, sequence (P49674 whole entry, looked up, canonical isoform): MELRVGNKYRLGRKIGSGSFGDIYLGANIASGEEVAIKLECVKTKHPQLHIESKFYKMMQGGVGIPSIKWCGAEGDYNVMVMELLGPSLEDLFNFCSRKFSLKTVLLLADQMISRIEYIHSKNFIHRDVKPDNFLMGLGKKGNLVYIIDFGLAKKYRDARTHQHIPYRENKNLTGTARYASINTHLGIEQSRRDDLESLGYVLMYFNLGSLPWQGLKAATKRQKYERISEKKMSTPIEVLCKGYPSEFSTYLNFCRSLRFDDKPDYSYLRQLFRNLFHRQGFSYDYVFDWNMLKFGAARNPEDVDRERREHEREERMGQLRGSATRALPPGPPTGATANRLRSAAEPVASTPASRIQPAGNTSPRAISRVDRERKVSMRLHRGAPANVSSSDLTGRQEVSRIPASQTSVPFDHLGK

[4] = target: Mitogen-activated protein kinase 10 (Homo sapiens, UniProt P53779); experiment: Selectivity interaction (Kinase panel (Invitrogen)) EUB0000639a MAPK10; details: at 200 nM
Mitogen-activated protein kinase 10, sequence (P53779 whole entry): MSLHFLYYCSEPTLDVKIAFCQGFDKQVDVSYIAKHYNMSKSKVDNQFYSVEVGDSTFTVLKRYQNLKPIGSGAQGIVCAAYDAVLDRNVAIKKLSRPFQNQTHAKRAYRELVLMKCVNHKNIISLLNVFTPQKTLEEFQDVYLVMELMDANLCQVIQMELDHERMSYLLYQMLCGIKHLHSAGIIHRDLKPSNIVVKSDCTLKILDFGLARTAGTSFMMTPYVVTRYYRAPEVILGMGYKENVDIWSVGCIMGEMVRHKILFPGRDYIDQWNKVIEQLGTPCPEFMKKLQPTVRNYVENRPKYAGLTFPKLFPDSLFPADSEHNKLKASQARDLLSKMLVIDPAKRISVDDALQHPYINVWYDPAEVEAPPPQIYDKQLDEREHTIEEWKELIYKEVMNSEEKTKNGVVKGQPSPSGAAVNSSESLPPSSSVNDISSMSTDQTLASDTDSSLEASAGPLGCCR

[5] = target: AP2-associated protein kinase 1 (Homo sapiens, UniProt Q2M2I8); experiment: Selectivity interaction (Kinase panel (DSF assay)) EUB0001559a AAK1
AP2-associated protein kinase 1, sequence (Q2M2I8 whole entry, looked up): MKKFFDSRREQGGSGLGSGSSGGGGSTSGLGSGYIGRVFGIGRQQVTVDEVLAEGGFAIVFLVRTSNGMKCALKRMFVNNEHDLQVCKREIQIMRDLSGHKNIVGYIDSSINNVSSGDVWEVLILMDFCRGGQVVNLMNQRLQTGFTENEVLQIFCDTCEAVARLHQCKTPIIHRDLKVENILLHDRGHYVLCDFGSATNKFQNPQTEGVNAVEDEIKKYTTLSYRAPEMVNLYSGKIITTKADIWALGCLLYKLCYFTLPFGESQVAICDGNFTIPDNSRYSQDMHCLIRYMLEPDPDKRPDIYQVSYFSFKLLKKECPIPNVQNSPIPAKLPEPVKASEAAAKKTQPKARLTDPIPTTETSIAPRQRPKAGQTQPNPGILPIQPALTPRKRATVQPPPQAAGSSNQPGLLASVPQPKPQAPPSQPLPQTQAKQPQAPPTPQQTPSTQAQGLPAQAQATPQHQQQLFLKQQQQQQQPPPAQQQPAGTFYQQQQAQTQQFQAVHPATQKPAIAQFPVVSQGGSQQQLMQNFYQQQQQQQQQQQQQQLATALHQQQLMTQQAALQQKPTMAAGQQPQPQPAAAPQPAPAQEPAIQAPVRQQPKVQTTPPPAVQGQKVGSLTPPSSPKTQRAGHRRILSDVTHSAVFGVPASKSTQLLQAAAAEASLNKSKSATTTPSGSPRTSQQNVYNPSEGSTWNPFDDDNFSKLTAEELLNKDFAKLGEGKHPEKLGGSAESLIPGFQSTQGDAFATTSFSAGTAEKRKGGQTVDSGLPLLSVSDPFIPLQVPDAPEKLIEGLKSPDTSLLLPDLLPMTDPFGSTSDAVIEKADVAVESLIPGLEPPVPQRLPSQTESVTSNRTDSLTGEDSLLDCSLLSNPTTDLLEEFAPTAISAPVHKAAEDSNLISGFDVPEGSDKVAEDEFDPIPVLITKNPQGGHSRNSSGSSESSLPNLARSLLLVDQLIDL

[6] = target: High affinity nerve growth factor receptor (Homo sapiens, UniProt P04629); experiment: Selectivity interaction (KinomeScan (DiscoverX)) EUB0000595a NTRK1; details: at 10 µM
High affinity nerve growth factor receptor, sequence (P04629 33-796 limits assumed): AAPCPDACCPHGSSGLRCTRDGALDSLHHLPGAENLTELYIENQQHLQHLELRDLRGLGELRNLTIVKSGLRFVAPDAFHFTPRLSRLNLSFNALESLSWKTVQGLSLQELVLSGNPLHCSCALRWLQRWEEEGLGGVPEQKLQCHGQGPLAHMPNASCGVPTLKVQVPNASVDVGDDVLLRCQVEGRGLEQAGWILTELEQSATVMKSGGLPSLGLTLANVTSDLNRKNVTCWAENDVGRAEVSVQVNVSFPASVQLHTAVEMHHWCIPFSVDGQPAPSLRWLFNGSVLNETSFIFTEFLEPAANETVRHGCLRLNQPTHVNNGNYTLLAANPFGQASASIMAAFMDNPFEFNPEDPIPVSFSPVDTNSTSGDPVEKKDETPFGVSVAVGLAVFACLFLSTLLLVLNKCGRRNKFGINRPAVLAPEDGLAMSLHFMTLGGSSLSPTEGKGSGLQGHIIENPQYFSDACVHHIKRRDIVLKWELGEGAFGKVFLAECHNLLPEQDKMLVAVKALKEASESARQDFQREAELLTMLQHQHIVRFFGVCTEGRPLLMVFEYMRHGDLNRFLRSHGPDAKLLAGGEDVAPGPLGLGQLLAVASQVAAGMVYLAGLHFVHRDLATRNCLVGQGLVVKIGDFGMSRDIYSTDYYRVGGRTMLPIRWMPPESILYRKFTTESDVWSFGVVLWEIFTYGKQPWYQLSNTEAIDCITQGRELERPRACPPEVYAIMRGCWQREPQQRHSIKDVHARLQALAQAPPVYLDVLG

[7] = target: Serine/threonine-protein kinase 26 (Homo sapiens, UniProt Q9P289); experiment: Selectivity interaction (KinomeScan (DiscoverX)) EUB0001049a STK26; details: at 1 µM
Serine/threonine-protein kinase 26, sequence (Q9P289 2-416 limits assumed): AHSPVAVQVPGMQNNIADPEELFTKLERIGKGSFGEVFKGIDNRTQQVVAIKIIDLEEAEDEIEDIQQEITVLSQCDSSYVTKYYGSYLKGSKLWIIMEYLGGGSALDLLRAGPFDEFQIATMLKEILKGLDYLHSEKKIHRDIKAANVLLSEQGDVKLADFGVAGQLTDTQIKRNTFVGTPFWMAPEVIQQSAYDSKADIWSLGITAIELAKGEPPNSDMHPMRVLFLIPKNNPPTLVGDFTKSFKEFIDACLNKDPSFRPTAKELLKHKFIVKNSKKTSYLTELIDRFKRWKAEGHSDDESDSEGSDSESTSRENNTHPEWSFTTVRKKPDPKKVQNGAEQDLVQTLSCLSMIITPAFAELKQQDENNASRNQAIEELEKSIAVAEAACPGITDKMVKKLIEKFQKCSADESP

[8] = target: T1, Serine/threonine-protein kinase PLK4 (Homo sapiens) (UniProt O00444); experiment: Selectivity interaction (Ambit KINOMEscan and KiNATiv profiling in Jurkat cells) EUB0000090b PLK4; type: cell-based; details: at 1 µM
T1 sequence (whole entry): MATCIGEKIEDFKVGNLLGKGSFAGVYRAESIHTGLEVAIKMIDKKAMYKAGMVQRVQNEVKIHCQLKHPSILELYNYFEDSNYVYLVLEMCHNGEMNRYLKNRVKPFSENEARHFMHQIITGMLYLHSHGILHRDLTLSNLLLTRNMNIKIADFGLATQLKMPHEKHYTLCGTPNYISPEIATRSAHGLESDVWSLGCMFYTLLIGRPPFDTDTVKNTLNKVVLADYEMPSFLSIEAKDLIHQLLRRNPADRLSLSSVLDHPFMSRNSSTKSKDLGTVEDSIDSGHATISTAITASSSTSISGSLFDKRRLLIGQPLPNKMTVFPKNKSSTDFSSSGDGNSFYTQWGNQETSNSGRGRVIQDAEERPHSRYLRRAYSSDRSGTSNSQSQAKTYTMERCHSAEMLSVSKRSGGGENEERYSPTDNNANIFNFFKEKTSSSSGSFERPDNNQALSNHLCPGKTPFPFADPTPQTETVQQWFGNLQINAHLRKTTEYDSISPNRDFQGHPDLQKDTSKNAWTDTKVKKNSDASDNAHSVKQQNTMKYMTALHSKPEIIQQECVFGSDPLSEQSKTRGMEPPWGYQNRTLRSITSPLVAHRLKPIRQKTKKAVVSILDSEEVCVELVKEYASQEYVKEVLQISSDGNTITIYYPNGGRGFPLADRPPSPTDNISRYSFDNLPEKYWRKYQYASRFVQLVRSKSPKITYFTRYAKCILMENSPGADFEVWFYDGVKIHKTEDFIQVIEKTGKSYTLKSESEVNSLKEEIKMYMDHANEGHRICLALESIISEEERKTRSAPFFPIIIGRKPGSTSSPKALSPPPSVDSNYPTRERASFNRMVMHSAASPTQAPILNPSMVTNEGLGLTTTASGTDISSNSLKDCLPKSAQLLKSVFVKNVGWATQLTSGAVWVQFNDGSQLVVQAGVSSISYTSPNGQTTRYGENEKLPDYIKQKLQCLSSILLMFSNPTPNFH

[9] = target: T2, Serine/threonine-protein kinase Nek2 (Homo sapiens) (UniProt P51955); experiment: Selectivity interaction (KinomeScan (DiscoverX)) EUB0000655a NEK2; details: at 10 µM
T2 sequence (whole entry): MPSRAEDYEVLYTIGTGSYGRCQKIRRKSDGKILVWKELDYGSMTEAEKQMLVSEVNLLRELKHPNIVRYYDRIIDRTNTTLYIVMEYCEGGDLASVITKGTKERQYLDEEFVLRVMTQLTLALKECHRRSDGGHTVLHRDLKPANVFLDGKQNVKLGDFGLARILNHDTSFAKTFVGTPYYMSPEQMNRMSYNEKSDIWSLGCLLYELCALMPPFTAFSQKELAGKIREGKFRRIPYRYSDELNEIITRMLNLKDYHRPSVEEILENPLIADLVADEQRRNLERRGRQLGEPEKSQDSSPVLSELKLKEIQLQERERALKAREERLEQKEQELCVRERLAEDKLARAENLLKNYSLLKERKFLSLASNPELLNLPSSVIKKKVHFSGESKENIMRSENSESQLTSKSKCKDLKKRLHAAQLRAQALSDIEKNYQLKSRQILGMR

[10] = target: 5'-AMP-activated protein kinase catalytic subunit alpha-1 (Homo sapiens, UniProt Q13131); experiment: Selectivity interaction (Kinase panel (Enzyme activity assay)) EUB0000612a PRKAA1
5'-AMP-activated protein kinase catalytic subunit alpha-1, sequence (Q13131 whole entry, canonical isoform): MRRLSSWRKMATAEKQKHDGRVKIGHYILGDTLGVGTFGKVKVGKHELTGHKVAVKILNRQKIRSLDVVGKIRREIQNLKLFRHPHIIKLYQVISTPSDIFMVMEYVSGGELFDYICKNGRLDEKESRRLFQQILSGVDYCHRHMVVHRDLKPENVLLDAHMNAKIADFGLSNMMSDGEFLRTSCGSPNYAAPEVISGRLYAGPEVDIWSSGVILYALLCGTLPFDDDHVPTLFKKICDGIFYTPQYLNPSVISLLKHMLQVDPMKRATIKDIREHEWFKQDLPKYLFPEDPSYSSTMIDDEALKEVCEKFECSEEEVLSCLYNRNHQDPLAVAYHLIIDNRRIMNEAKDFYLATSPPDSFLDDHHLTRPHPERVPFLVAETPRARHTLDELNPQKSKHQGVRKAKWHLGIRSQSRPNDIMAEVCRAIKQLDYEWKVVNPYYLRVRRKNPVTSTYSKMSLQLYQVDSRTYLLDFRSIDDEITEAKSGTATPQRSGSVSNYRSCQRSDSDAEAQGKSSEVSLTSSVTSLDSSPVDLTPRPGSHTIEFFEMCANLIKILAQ

[11] = target: Phosphorylase b kinase gamma catalytic chain, skeletal muscle/heart isoform (Homo sapiens) (UniProt Q16816); experiment: Selectivity interaction (KinomeScan (DiscoverX)) EUB0001079a PHKG1; details: at 1 µM
Phosphorylase b kinase gamma catalytic chain, skeletal muscle/heart isoform (Homo sapiens), sequence (Q16816 whole entry, looked up, canonical isoform): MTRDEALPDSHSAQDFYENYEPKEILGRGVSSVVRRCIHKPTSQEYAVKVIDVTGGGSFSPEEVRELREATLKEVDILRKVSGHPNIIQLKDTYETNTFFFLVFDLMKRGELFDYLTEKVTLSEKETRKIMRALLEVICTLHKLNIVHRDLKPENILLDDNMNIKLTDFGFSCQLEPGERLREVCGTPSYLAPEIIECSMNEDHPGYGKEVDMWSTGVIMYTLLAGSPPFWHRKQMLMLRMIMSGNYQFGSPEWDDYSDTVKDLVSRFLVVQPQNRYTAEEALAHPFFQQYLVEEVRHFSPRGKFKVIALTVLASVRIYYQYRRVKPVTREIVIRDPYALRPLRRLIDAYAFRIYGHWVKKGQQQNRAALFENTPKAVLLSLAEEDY

[12] = target: Protein arginine N-methyltransferase 1 (Homo sapiens, UniProt Q99873); details: at 1 µM
Protein arginine N-methyltransferase 1, sequence (Q99873 whole entry, looked up): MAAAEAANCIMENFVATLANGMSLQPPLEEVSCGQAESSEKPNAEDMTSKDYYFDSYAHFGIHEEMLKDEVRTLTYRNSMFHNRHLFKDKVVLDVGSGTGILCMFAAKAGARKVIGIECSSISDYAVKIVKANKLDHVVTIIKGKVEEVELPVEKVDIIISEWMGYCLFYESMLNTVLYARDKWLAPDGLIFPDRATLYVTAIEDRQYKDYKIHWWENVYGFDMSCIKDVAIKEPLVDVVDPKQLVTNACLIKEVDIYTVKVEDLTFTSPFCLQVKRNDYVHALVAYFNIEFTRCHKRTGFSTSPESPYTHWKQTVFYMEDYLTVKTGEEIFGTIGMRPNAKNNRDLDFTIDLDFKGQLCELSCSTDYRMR

[13] = target: Calcium/calmodulin-dependent protein kinase type 1 (Homo sapiens) (UniProt Q14012); experiment: Selectivity interaction (KinomeScan (DiscoverX)) EUB0001619a CAMK1; details: at 1 µM
Calcium/calmodulin-dependent protein kinase type 1 (Homo sapiens), sequence (Q14012 whole entry, looked up): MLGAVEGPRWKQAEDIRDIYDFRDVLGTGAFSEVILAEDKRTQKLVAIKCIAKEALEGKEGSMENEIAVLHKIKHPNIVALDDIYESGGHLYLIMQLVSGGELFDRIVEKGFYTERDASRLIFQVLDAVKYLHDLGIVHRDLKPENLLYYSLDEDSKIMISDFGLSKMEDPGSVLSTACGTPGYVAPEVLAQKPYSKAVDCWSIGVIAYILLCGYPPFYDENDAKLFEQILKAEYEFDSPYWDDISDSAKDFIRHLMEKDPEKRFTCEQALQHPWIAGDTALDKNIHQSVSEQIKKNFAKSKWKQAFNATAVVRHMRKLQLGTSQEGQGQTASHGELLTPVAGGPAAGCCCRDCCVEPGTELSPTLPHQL

% of activity ([1]; at 1 µM): 102% | % of activity ([1]; at 10 µM): 99.7%
SMILES: Cc1cc(C)cc([C@H]2c3cc(C)ccc3NC(=O)CN2C(=O)c2ccc(Br)s2)c1

% of inhibition [2]: 4%
SMILES: CN1Cc2nccc(-c3cn(C)nc3-c3ccc(F)cc3)c2C1=O

% of inhibition ([3]; at 0.01 µM): -6.6% | % of inhibition ([3]; at 0.04 µM): 20.3% | % of inhibition ([3]; at 0.2 µM): 53% | % of inhibition ([3]; at 1 µM): 77.8% | % of inhibition ([3]; at 5 µM): 94.8% | % of inhibition [4]: 4.92%
SMILES: CC[C@@H]1[C@H](F)C(=O)N[C@@H]1COc1nccc2cc(C(N)=O)c(OC)cc12 [ZIMLOVISERTIB]

dTM [5]: 0.3 K
SMILES: CN(C(=O)c1cnn2cccnc12)c1cc2c(cc1N1CCOCC1)C(=O)N(C[C@@H](F)C(C)(C)O)C2

SMILES: COCC(=O)NC/C=C/c1ccc2ncnc(Nc3ccc(Oc4ccc(C)nc4)c(C)c3)c2c1 [CP-724714]
% of control [6]: 89%

SMILES: COc1cc(Nc2nc(C)cc(-c3cnn4nc(OC)ccc34)n2)cc(C(F)(F)F)c1
% of control [7]: 85%

SMILES: CN(C)C/C=C/C(=O)Nc1ccc(C(=O)N2CCCC(Nc3ncc(Cl)c(-c4c[nH]c5ccccc45)n3)C2)cc1 (stereo not drawn)
% of control [8]: 82%

SMILES: CN(C)CCOc1ccc(-c2nc(-c3ccncc3)c(-c3ccc4c(c3)CC/C4=N\O)[nH]2)cc1
% of control [9]: 100%

IC50 [10]: > 10 µM
SMILES: CCc1cccc(CC)c1NC(=O)c1nn(C)c2c1CCc1cnc(Nc3ccc(C(=O)NC4CCN(C)CC4)cc3OC(F)(F)F)nc1-2

SMILES: Nc1cnc(N2CCc3cc(S(=O)(=O)Nc4c(F)cc(Cl)cc4F)cc(N4CCCC4=O)c32)nc1 [TP-020n]
% of control [11]: 71%

% activity [12]: > 90%
SMILES: CNCCN1CCC(c2cc(CN(C)C(=O)c3cccc(Oc4ccccc4)c3)ccn2)CC1

SMILES: N#Cc1cccc(-c2c[nH]c3ncnc(N4CCOCC4)c23)c1
% of control [13]: 89%
